Source: ChEMBL document CHEMBL6114980, “Single or double lipid-modified ultra-short antimicrobial peptides for treating infections caused by resistant bacteria” (Eur J Med Chem, 2025)
≈ marks a conversion by molar mass, not a printed value. Calls of active or inactive are those of the source. The calls are words filed in the database; no cut-off is given here. Peptide text beside a SMILES is read from it. * marks the point of attachment. Lauroyl = CCCCCCCCCCCC(=O)*; Octanoyl = CCCCCCCC(=O)*

Experiments:
Acinetobacter baumannii [1] = test: Antibacterial activity against Acinetobacter baumannii 92359 assessed as reduction in bacterial growth incubated for 18 to 24 hrs by broth microdilution method; type: functional; settings: time 18-24 hrs
Staphylococcus aureus [2] = test: Antibacterial activity against methicillin resistant Staphylococcus aureus infected in male BALB/c mouse model of skin wound infection assessed as reduction in wound area at 2 mg/kg, ip measured after 10 days post infection relative to control; type: functional; parameters: scale not given: the % may be the effect or the level left; settings: time 10 day
Escherichia coli [3] = test: Antibacterial activity against Escherichia coli assessed as reduction in survival bacterial growth in presence of ZnCl2 measured after 18 to 24 hrs (reference value: 8 microM); type: functional; settings: time 18-24 hrs
[4] = Potency index, ratio of polymyxin B to test compound for acute toxicity in BALB/c mouse assessed lethal dose administered as ip dose measured for 7 days; type: organism-based; settings: in vivo, 168 h, time 7 day
Staphylococcus aureus [5] = test: Antibacterial activity against Staphylococcus aureus assessed as reduction in survival bacterial growth in presence of <=2 ug/ml chymotrypsin measured after1 hr by absorbance based analysis; type: functional, organism-based; settings: time 1.0 hrs
[6] = Acute toxicity in male BALB/c mouse assessed mouse survival at 100 to 130 mg/kg, ip measured within 3 hrs; type: organism-based; settings: in vivo, dose 100-130 mg/kg
Staphylococcus aureus [7] = test: Synergistic antibacterial activity against methicillin-resistant Staphylococcus aureus measured after 18 hrs in presence of polymyxin B by absorbance based analysis; type: functional, organism-based
Staphylococcus aureus [8] = test: Antibacterial activity against Staphylococcus aureus 25923 at sub-MIC concentration measured after 15 passages; type: functional, organism-based
Cell membrane [9] = test: Induction of cytoplasmic membrane depolarization in Escherichia coli assessed as increase in fluorescence intensity at 4 times MIC measured for 10 mins by DiSC3-5 dye based fluorescence assay
Staphylococcus aureus [10] = test: Synergistic antibacterial activity against methicillin-resistant Staphylococcus aureus measured after 18 hrs in presence of streptomycin by absorbance based analysis; type: functional, organism-based
[11] = Stability in mouse serum assessed as retention time measured after 1 hr by RP-HPLC analysis; type: ADME, cell-free
Cell membrane [12] = test: Induction of inner membrane permeabilization in Escherichia coli at 4 times MIC measured for 135 mins by absorbance based analysis
Staphylococcus aureus [13] = test: Induction of morphological changes in Staphylococcus aureus assessed as cell aggregation at 2 times MIC measured after 30 mins by SEM analysis; type: functional, organism-based
Cell membrane [14] = test: Induction of outer membrane permeabilization in Escherichia coli assessed as increase in fluorescence intensity measured for 10 mins by fluorescence based NPN uptake assay
Bacillus subtilis = test: Antibacterial activity against Bacillus subtilis ATCC 23857 assessed as reduction in bacterial growth incubated for 18 to 24 hrs by broth microdilution method; type: functional; settings: time 18-24 hrs
Staphylococcus aureus [15] = test: Synergistic antibacterial activity against Staphylococcus aureus 25923 measured after 18 hrs in presence of streptomycin by absorbance based analysis; type: functional, organism-based
Staphylococcus aureus [16] = test: Antibacterial activity against Staphylococcus aureus assessed as reduction in survival bacterial growth by measuring fold change in presence of FeCl3 measured after 18 to 24 hrs; type: functional; settings: time 18-24 hrs
Staphylococcus aureus [17] = test: Antibacterial activity against Staphylococcus aureus 113 assessed as reduction in bacterial growth incubated for 18 to 24 hrs by broth microdilution method; type: functional; settings: time 18-24 hrs
Staphylococcus aureus [18] = test: Synergistic antibacterial activity against Staphylococcus aureus 113 measured after 18 hrs in presence of cephalothin by absorbance based analysis; type: functional, organism-based
Pseudomonas aeruginosa = test: Antibacterial activity against Pseudomonas aeruginosa 6434N assessed as reduction in bacterial growth incubated for 18 to 24 hrs by broth microdilution method; type: functional; settings: time 18-24 hrs
Staphylococcus aureus [19] = test: Antibacterial activity against Staphylococcus aureus ATCC 25923 assessed as reduction in bacterial growth incubated for 18 to 24 hrs by broth microdilution method; type: functional; settings: time 18-24 hrs
Klebsiella pneumoniae [20] = test: Antibacterial activity against Klebsiella pneumoniae ATCC 700603 infected in male BALB/c mouse lung infection model assessed as expansion of lung alveoli at 5 mg/kg, ip measured after 6 to 36 hrs; type: functional, organism-based; settings: time 6-36 hrs
Staphylococcus aureus [21] = test: Synergistic antibacterial activity against Staphylococcus aureus 113 measured after 18 hrs in presence of polymyxin B by absorbance based analysis; type: functional, organism-based
Staphylococcus aureus [22] = test: Additive antibacterial activity against Staphylococcus aureus 113 assessed as fractional inhibitory in presence of streptomycin by checker board assay; type: functional
Staphylococcus aureus [23] = test: Antibacterial activity against methicillin resistant Staphylococcus aureus infected in male BALB/c mouse model of skin wound infection assessed as reduction in wound area at 2 mg/kg, ip measured after 6 to 36 hrs postinfection; type: functional, organism-based; settings: time 6-36 hrs
Escherichia coli [24] = test: Antibacterial activity against Escherichia coli 850 assessed as reduction in bacterial growth incubated for 18 to 24 hrs by broth microdilution method; type: functional; settings: time 18-24 hrs
Klebsiella pneumoniae [25] = test: Antibacterial activity against Klebsiella pneumoniae ATCC 700603 infected in male BALB/c mouse lung infection model assessed as reduction in number of inflammatory cells at 5 mg/kg, ip measured after 6 to 36 hrs; type: functional, organism-based; settings: time 6-36 hrs
Enterococcus faecalis = test: Antibacterial activity against Enterococcus faecalis ATCC 29212 assessed as reduction in bacterial growth incubated for 18 to 24 hrs by broth microdilution method; type: functional; settings: time 18-24 hrs
Staphylococcus aureus [26] = test: Synergistic antibacterial activity against Staphylococcus aureus 113 measured after 18 hrs in presence of streptomycin by absorbance based analysis; type: functional, organism-based
Staphylococcus aureus [27] = test: Induction of morphological changes in Staphylococcus aureus assessed as cell foaming at 2 times MIC measured after 30 mins by SEM analysis; type: functional, organism-based
[28] = system: Staphylococcus epidermidis; test: Antibacterial activity against Staphylococcus epidermidis ATCC 12228 assessed as reduction in bacterial growth incubated for 18 to 24 hrs by broth microdilution method; type: functional; settings: time 18-24 hrs
Escherichia coli [29] = test: Antibacterial activity against Escherichia coli 780 assessed as reduction in bacterial growth incubated for 18 to 24 hrs by broth microdilution method; type: functional; settings: time 18-24 hrs
Staphylococcus aureus [30] = test: Antibacterial activity against methicillin resistant Staphylococcus aureus infected in male BALB/c mouse model of skin wound infection assessed as healthy development of sebaceous glands at 2 mg/kg, ip measured after 10 days post infection; type: functional, organism-based; settings: time 10.0 day
Staphylococcus aureus [31] = test: Synergistic antibacterial activity against Staphylococcus aureus 25923 measured after 18 hrs in presence of polymyxin B by absorbance based analysis; type: functional, organism-based
Acinetobacter baumannii [32] = test: Antibacterial activity against Acinetobacter baumannii ATCC 19606 assessed as reduction in bacterial growth incubated for 18 to 24 hrs by broth microdilution method; type: functional; settings: time 18-24 hrs
[33] = Stability in mouse serum assessed as half life measured after 1 hr by HPLC analysis; type: ADME, cell-free
Escherichia coli [34] = test: Antibacterial activity against Escherichia coli assessed as reduction in survival bacterial growth in presence of KCl measured after 18 to 24 hrs (reference value: 8 microM); type: functional; settings: time 18-24 hrs
Klebsiella pneumoniae [35] = test: Induction of morphological changes in Klebsiella pneumoniae assessed as cell adhesion at 2 times MIC measured after 30 mins by SEM analysis; type: functional, organism-based
Klebsiella pneumoniae [36] = test: Induction of morphological changes in Klebsiella pneumoniae assessed as cell contraction at 2 times MIC measured after 120 mins by SEM analysis; type: functional, organism-based
Escherichia coli [37] = test: Bactericidal activity against Escherichia coli 25922 assessed as eradication of bacteria at 2 times MIC measured within 1 hr by time-kill assay; type: functional, organism-based
Escherichia coli [38] = test: Induction of cell membrane disruption in Escherichia coli assessed as PI uptake at 2 times MIC measured after 120 mins by PI staining based flow cytometry analysis (Rvb =<10 %); type: functional; settings: 2 h

`CCCCCCCCCCCC(=O)N[C@@H](CCCCN)C(=O)N[C@@H](CCCCN)C(=O)N[C@@H](Cc1c[nH]c2ccccc12)C(=O)N[C@@H](Cc1c[nH]c2ccccc12)C(N)=O` (Lauroyl-KKWW-NH2) gave an MIC (Acinetobacter baumannii [1]) of 16 µM (≈ 13.2 µg/mL), an Activity (Staphylococcus aureus [2]) of less than 20% and an MIC (Escherichia coli [3]) of 8 µM. The Ratio [4] was 4.84, the Activity (Staphylococcus aureus [5]) was “Active” and the Activity [6] was “Toxic”. For the same compound, the Activity (Staphylococcus aureus [7]) was “Active”, the Activity (Staphylococcus aureus [8]) was “inactive” and the Activity (Cell membrane [9]) was “Active; Compound Showed Pronounced Effect Than Quality Control Polymyxin B”. The Activity (Staphylococcus aureus [10]) was “Active”, the Retention_time [11] was 19.718 min and the Activity (Cell membrane [12]) was “Active; Compound Showed Stronger Effect Than Positive Control 0.1% Tritonx-100”. The Activity (Staphylococcus aureus [13]) was “Active”, the Activity (Cell membrane [14]) was “Dose-dependent-effect” and the MIC (Bacillus subtilis) was 2 µM (≈ 1.66 µg/mL). For the same compound, the Activity (Staphylococcus aureus [15]) was “Active”, the “fold change (FC)” value (Staphylococcus aureus [16]) was 2 and the MIC (Staphylococcus aureus [17]) was 4 µM (≈ 3.31 µg/mL). The Activity (Staphylococcus aureus [18]) was “Active”, the MIC (Pseudomonas aeruginosa) was 8 µM (≈ 6.62 µg/mL) and the MIC (Staphylococcus aureus [19]) was 4 µM (≈ 3.31 µg/mL). For the same compound, the Activity (Klebsiella pneumoniae [20]) was “Active”, the Activity (Staphylococcus aureus [21]) was “Active” and the “fractional inhibitory concentration index (FICI)” value (Staphylococcus aureus [22]) was 0.562. The Activity (Staphylococcus aureus [23]) was “Active”, the MIC (Escherichia coli [24]) was 8 µM (≈ 6.62 µg/mL) and the Activity (Klebsiella pneumoniae [25]) was “Active”. For the same compound, the MIC (Enterococcus faecalis) was 8 µM (≈ 6.62 µg/mL), the Activity (Staphylococcus aureus [26]) was “Active” and the Activity (Staphylococcus aureus [27]) was “Active”. For the same compound, the MIC [28] was 4 µM (≈ 3.31 µg/mL), the MIC (Escherichia coli [29]) was 8 µM (≈ 6.62 µg/mL) and the Activity (Staphylococcus aureus [30]) was “Active”. The Activity (Staphylococcus aureus [31]) was “Active”, the MIC (Acinetobacter baumannii [32]) was 16 µM (≈ 13.2 µg/mL) and the half-life [33] was 4.25 h. The MIC (Escherichia coli [34]) was 4 µM, the Activity (Klebsiella pneumoniae [35]) was “Active” and the Activity (Klebsiella pneumoniae [36]) was “Active; Compound Showed More Pronounced Effect Compared To 30 Mins Incubation Time”. For the same compound, the Activity (Escherichia coli [37]) was “Active” and the Activity (Escherichia coli [38]) was greater than 50%.

Work on `CCCCCCCC(=O)NCCCC[C@H](NC(=O)CCCCCCC)C(=O)N[C@@H](CCCCN)C(=O)N[C@@H](CCCCN)C(=O)N[C@@H](Cc1c[nH]c2ccccc12)C(=O)N[C@@H](Cc1c[nH]c2ccccc12)C(N)=O` (Octanoyl-K(Octanoyl)KKWW-NH2) yielded an MIC (Acinetobacter baumannii [1]) of 8 µM (≈ 8.21 µg/mL), an Activity (Staphylococcus aureus [2]) of less than 20% and an MIC (Escherichia coli [3]) of 4 µM. For the same compound, the Ratio [4] was 4.78, the Activity (Staphylococcus aureus [5]) was “Active” and the Activity [6] was “Toxic”. The Activity (Staphylococcus aureus [7]) was “Active”, the Activity (Staphylococcus aureus [8]) was “inactive” and the Activity (Cell membrane [9]) was “Active; Compound Showed Pronounced Effect Than Quality Control Polymyxin B”. For the same compound, the Activity (Staphylococcus aureus [10]) was “Active”, the Retention_time [11] was 19.975 min and the Activity (Cell membrane [12]) was “Active; Compound Showed Stronger Effect Than Positive Control 0.1% Tritonx-100”. The Activity (Staphylococcus aureus [13]) was “Active”, the Activity (Cell membrane [14]) was “Dose-dependent-effect” and the MIC (Bacillus subtilis) was 8 µM (≈ 8.21 µg/mL). The Activity (Staphylococcus aureus [15]) was “Active”, the “fold change (FC)” value (Staphylococcus aureus [16]) was 2 and the MIC (Staphylococcus aureus [17]) was 8 µM (≈ 8.21 µg/mL). For the same compound, the Activity (Staphylococcus aureus [18]) was “Active”, the MIC (Pseudomonas aeruginosa) was 16 µM (≈ 16.4 µg/mL) and the MIC (Staphylococcus aureus [19]) was 8 µM (≈ 8.21 µg/mL). For the same compound, the Activity (Klebsiella pneumoniae [20]) was “Active”, the Activity (Staphylococcus aureus [21]) was “Active” and the “fractional inhibitory concentration index (FICI)” value (Staphylococcus aureus [22]) was 0.75. The Activity (Staphylococcus aureus [23]) was “Active”, the MIC (Escherichia coli [24]) was 8 µM (≈ 8.21 µg/mL) and the Activity (Klebsiella pneumoniae [25]) was “Active”. For the same compound, the MIC (Enterococcus faecalis) was 16 µM (≈ 16.4 µg/mL), the Activity (Staphylococcus aureus [26]) was “Active” and the Activity (Staphylococcus aureus [27]) was “Active”. For the same compound, the MIC [28] was 8 µM (≈ 8.21 µg/mL), the MIC (Escherichia coli [29]) was 8 µM (≈ 8.21 µg/mL) and the Activity (Staphylococcus aureus [30]) was “Active”. For the same compound, the Activity (Staphylococcus aureus [31]) was “Active”, the MIC (Acinetobacter baumannii [32]) was 16 µM (≈ 16.4 µg/mL) and the half-life [33] was 6.3 h. The MIC (Escherichia coli [34]) was 8 µM, the Activity (Klebsiella pneumoniae [35]) was “Active” and the Activity (Klebsiella pneumoniae [36]) was “Active; Compound Showed More Pronounced Effect Compared To 30 Mins Incubation Time”. The Activity (Escherichia coli [37]) was “Active” and the Activity (Escherichia coli [38]) was greater than 50%.
